Assay results taken from paper PMC10607876, “Phenylacetyl-/Trolox- Amides: Synthesis, Sigma-1, HDAC-6, and Antioxidant Activities” (International Journal of Molecular Sciences, 2023).
“And” between values parts separate entries of the source, which are not always exact repeats. Equal entries are not always repeated. Blank lines part the entries; values can stand above or below the compound they belong to.

Assays:
[1] = target: T1, σ-2 (Rattus norvegicus, UniProt Q5U3Y7); experiment: Sigma-2 competitive radioligand displacement binding (NIMH PDSP)
T1 sequence (Q5U3Y7 1-176): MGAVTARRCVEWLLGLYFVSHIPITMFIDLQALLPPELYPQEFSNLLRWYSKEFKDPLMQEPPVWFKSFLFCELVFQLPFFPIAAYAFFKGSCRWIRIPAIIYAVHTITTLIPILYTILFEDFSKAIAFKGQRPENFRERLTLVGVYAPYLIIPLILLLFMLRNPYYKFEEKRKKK
Protocol: Sigma-1 and 2 affinity experiments (Ki values) were carried out at the National Institute of Mental Health’s Psychoactive Drug Screening Program (NIMH PDSP, UNC Chapel Hill, NC). Assay details (i.e., competitive radioligand displacement conditions, etc.) are available at https://pdsp.unc.edu/pdspweb/content/PDSP%20Protocols%20II%202013-03-28.pdf (accessed on 23 August 2023). Table 2 below indicates the Ki values determined for all compounds.

[2] = Oxygen Radical Activity Capacity (ORAC) assay; settings: for antioxidant activities (in words): ORAC; for Slopes: slope of net AUC vs concentration (2.5-50 µM), averaged, n = 3 runs, 60 min; for TEs (Trolox equivalents): slope of sample divided by slope of Trolox, ORAC after 60 min, mean ± SD, n = 3
Protocol: Compound antioxidant capacities were determined using the Oxygen Radical Activity Capacity (ORAC) Assay Kit (catalog #ab233473, Abcam, Cambridge, MA, USA) according to the manufacturer’s protocol. Briefly, the Trolox standard (0.2 mM, 50:50 v/v, water: acetone) and each test compound (0.2 mM, 50:50 v/v, water: acetone) were tested at final concentrations ranging from 2.5 µM to 50 µM in the assay. Fluorescein (150 μL) probe solution and 25 μL of Trolox or each test compound were mixed in each well of a black 96-well microplate and incubated at 37 °C for 30 min. […] Trolox equivalents (TE) for the test compounds were obtained by directly dividing the slopes of each sample by the slope of the Trolox from its standard curve (Table 4). […] Curiously, unlike the phenolic Trolox derivatives (i.e., 3, 4, 8, 12, and 20), compound 18′s antioxidant activity can be attributed to the -NH-OH moiety.

[3] = target: T2, HDAC-6 (Homo sapiens, UniProt Q9UBN7); experiment: HDAC fluorescence activity assay (Reaction Biology, Howitz conditions); settings: HDAC-6 IC50, fluorogenic acetylated lysine substrate, 10-dose IC50 mode, threefold serial dilutions
T2 sequence (Q9UBN7 1-1215): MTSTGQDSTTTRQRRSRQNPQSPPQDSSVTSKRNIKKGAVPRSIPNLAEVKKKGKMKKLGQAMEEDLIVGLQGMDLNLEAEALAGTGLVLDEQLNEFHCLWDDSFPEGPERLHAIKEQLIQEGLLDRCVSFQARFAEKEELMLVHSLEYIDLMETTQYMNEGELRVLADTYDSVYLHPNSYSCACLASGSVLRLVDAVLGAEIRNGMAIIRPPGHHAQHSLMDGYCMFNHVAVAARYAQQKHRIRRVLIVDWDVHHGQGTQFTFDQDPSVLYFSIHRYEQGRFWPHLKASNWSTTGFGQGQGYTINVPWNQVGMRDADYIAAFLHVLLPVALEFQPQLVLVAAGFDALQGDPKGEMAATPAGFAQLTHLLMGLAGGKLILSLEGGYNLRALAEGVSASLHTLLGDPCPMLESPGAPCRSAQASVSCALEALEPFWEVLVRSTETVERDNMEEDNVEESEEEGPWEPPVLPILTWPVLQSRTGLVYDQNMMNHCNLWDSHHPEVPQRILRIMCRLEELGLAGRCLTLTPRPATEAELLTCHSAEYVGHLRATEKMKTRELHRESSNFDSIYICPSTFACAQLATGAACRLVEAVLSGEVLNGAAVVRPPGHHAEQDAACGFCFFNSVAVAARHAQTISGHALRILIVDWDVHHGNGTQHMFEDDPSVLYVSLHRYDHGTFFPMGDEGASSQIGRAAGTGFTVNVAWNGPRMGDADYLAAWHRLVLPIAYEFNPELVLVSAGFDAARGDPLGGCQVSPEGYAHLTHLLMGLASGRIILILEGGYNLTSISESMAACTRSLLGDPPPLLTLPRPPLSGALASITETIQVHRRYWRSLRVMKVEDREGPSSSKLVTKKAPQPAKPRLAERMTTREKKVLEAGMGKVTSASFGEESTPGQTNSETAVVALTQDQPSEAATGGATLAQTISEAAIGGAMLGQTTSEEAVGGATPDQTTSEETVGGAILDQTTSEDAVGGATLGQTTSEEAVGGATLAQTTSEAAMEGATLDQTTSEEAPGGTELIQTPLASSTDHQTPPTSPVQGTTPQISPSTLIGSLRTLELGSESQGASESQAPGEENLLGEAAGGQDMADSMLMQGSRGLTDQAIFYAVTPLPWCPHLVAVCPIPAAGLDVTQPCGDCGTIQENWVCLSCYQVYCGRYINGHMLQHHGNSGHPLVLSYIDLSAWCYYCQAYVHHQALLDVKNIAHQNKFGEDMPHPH

SMILES: COC(=O)c1ccc(CNC(=O)C2(C)CCc3c(C)c(O)c(C)c(C)c3O2)cc1 (stereo not shown) [Compound 2, Methyl 4-((6-hydroxy-2,5,7,8-tetramethylchromane-2-carboxamido)methyl)benzoate]
Ki [1]: 7.47 µM

SMILES: COC(=O)c1ccc(CNC(=O)Cc2ccccc2)cc1 [Compound 1, Methyl 4-((2-phenylacetamido)methyl) benzoate]
Ki [1]: > 10 µM

SMILES: Cc1c(C)c2c(c(C)c1O)CCC(C)(C(=O)NCc1ccc(C(=O)NN)cc1)O2 (stereo not shown) [Compound 9, N-(4-(Hydrazinecarbonyl)benzyl)-6-hydroxy-2,5,7,8-tetramethylchromane-2-carboxamide]
Ki [1]: > 10 µM

SMILES: NS(=O)(=O)c1ccc(CNC(=O)Cc2ccccc2)cc1 [Compound 16, 2-Phenyl-N-(4-sulfamoylbenzyl) acetamide]
Ki [1]: > 10 µM

SMILES: Cc1nc(NC(=O)C2(C)CCc3c(C)c(O)c(C)c(C)c3O2)sc1C (stereo not shown) [Compound 11, N-(4,5-Dimethylthiazol-2-yl)-6-hydroxy-2,5,7,8-tetramethylchromane-2-carboxamide]
Ki [1]: > 10 µM

SMILES: NNC(=O)c1ccc(CNC(=O)Cc2ccccc2)cc1 [Compound 5, N-(4-(Hydrazinecarbonyl)benzyl)-2-phenylacetamide]
Ki [1]: > 10 µM

SMILES: Cc1c(C)c2c(c(C)c1O)CCC(C)(C(=O)NCc1ccc(C(=O)NO)cc1)O2 (stereo not shown) [Compound 8, 6-Hydroxy-N-(4-(hydroxycarbamoyl)benzyl)-2,5,7,8-tetramethylchromane-2-carboxamide]
Ki [1]: > 10 µM
antioxidant activities (in words) [2]: potent
Slopes [2]: 232.42 ± 8.98
TEs (Trolox equivalents) [2]: 1.92 TE and 1.92 ± 0.07 TE
IC50 [3]: 0.017 µM and 0.0173 µM

SMILES: Cc1c(C)c2c(c(C)c1O)CCC(C)(C(=O)NNC(=O)c1ccc(Cl)cc1)O2 (stereo not shown) [Compound 20, N′-(4-Chlorobenzoyl)-6-hydroxy-2,5,7,8-tetramethylchromane-2-carbohydrazide]
antioxidant activities (in words) [2]: potent
Slopes [2]: 177.86 ± 3.38
TEs (Trolox equivalents) [2]: 1.47 ± 0.03 TE

SMILES: Cc1c(C)c2c(c(C)c1O)CCC(C)(C(=O)NCc1ccc3c(c1)OCO3)O2 (stereo not shown) [Compound 15, N-(Benzo[d][1,3]dioxol-5-ylmethyl)-6-hydroxy-2,5,7,8-tetramethylchromane-2-carboxamide]
Ki [1]: 6.98 µM

SMILES: Cc1c(C)c2c(c(C)c1O)CCC(C)(C(=O)N1CCN(c3ncccn3)CC1)O2 (stereo not shown) [Compound 14, (6-Hydroxy-2,5,7,8-tetramethylchroman-2-yl)(4-(pyrimidin-2-yl)piperazin-1-yl)methanone]
Ki [1]: 2.49 µM

SMILES: Cc1c(C)c2c(c(C)c1O)CCC(C)(C(=O)O)O2 (stereo not shown) [Trolox, 6-hydroxy-2,5,7,8-tetramethylchroman-2-carboxylic acid]
TEs (Trolox equivalents) [2]: 1.0 TE

SMILES: O=C(Cc1ccccc1)NCc1ccc(C(=O)NO)cc1 [Compound 18, N-Hydroxy-4-((2-phenylacetamido)methyl)benzamide]
antioxidant activities (in words) [2]: potent
Slopes [2]: 137.45 ± 1.88
TEs (Trolox equivalents) [2]: 1.13 ± 0.02 TE
IC50 [3]: 0.077 µM and 0.0779 µM

SMILES: Cc1c(C)c2c(c(C)c1O)CCC(C)(C(=O)NCc1ccc(S(N)(=O)=O)cc1)O2 (stereo not shown) [Compound 4, 6-Hydroxy-2,5,7,8-tetramethyl-N-(4-sulfamoylbenzyl) chromane-2-carboxamide]
Ki [1]: > 10 µM
antioxidant activities (in words) [2]: potent
Slopes [2]: 155.07 ± 2.39
TEs (Trolox equivalents) [2]: 1.28 ± 0.02 TE

Now from value to compound, other results behind:

Ki [1]: 6.86 µM
SMILES: Cc1cc(NC(=O)C2(C)CCc3c(C)c(O)c(C)c(C)c3O2)no1 (stereo not shown) [Compound 13, 6-Hydroxy-2,5,7,8-tetramethyl-N-(5-methylisoxazol-3-yl)chromane-2-carboxamide]

Ki [1]: 5.59 µM
SMILES: Cc1c(C)c2c(c(C)c1O)CCC(C)(C(=O)Nc1cnccn1)O2 (stereo not shown) [Compound 10, 6-Hydroxy-2,5,7,8-tetramethyl-N-(pyrazin-2-yl) chromane-2-carboxamide]

Ki [1]: > 10 µM
SMILES: Cc1c(C)c2c(c(C)c1O)CCC(C)(C(=O)Nc1nc3ccccc3o1)O2 (stereo not shown) [Compound 3, N-(Benzo[d]oxazol-2-yl)-6-hydroxy-2,5,7,8-tetramethylchromane-2-carboxamide]
antioxidant activities (in words) [2]: potent
Slopes [2]: 205.61 ± 4.38
TEs (Trolox equivalents) [2]: 1.70 ± 0.04 TE

Ki [1]: 1.5 µM
SMILES: Cc1c(C)c2c(c(C)c1O)CCC(C)(C(=O)Nc1cc3ccccc3cn1)O2 (stereo not shown) [Compound 7, 6-Hydroxy-N-(isoquinolin-3-yl)-2,5,7,8-tetramethylchromane-2-carboxamide]

Ki [1]: > 10 µM
SMILES: Cc1c(C)c2c(c(C)c1O)CCC(C)(C(=O)Nc1ncc[nH]1)O2 (stereo not shown) [Compound 12, 6-Hydroxy-N-(1H-imidazol-2-yl)-2,5,7,8-tetramethylchromane-2-carboxamide]
antioxidant activities (in words) [2]: potent
Slopes [2]: 151.24 ± 0.30
TEs (Trolox equivalents) [2]: 1.25 ± 0.002 TE

Ki [1]: 7.49 µM
SMILES: Cc1c(C)c2c(c(C)c1O)CCC(C)(C(=O)Nc1nc3ccccc3[nH]1)O2 (stereo not shown) [Compound 6, N-(1H-benzo[d]imidazol-2-yl)-6-hydroxy-2,5,7,8-tetramethylchromane-2-carboxamide]
